# Experiments:
# Cathepsin D (CTSD) = Cathepsin D (CTSD) levels in treated G93A mice; type: in vivo; conditions: 10 mg/kg, day 100
# Excerpt: We next investigated Cathepsin D (CTSD) expression and distribution in G93A mice, since its trafficking involves the retromer complex. In humans, CTSD maturation starts with a pre-pro-CTSD then converted to pro-CTSD (52 kDa) in the endoplasmic reticulum. Recycling of pro-CTSD and its downstream migration to acidic compartments involves CI-MPR and the retromer pathway. Pro-CTSD is further processed to an intermediate form in late endosomes (48 kDa), and finally converted to mature CTSD (34 kDa) in lysosomes. VPS35 inactivation[48] or VPS26 knockdown[21] affect CTSD maturation. We scored CTSD levels in lumbar SC extracts from vehicle-treated WT and vehicle- or 2a-treated G93A mice. […] We next analyzed CTSD levels and CTSD^+ puncta in MNs by confocal microscopy, observing their significant reduction in MNs of vehicle-treated G93A mice that was restored by treatment with compound 2a (Fig. 6f).
# Fluorescence intensity levels of VPS35, VPS26, CI-MPR, Sortilin, CTSD and Ubiquitin were calculated using NHI-Image J software (US National Institutes of Health) according to the following protocol: stacks of confocal images were used to generate the maximal projections using the Leica Application Suite X (2.0.0.14332) software and then postprocessed by NHI-Image J to crop single NeuN^+ MNs from the ventral horn of the spinal cord. […] On this ROI, we measured mean fluoresce levels (MFI) of target proteins.
# VPS29-VPS35 heterodimer = VPS29-VPS35 heterodimer (Homo sapiens, UniProt Q96QK1+Q9UBQ0); assay: STD-NMR and WaterLogsy-NMR ligand-based binding experiments; conditions: 2a 500 μM, VPS29-VPS35 10 μM
# Procedure: We used a ligand-based NMR approach to localize the binding between compound 2a and the VPS29-VPS35 heterodimer. These techniques provide binding information without requiring any isotopic labeling of the proteins. Particularly, Saturation Transfer Difference NMR (STD-NMR)[32] and WaterLogsy-NMR (WL-NMR)[33] experiments were acquired in buffer solutions containing a large excess of compound 2a (500μM) with respect to VPS29-VPS35 (10 μM). Both STD-NMR and WL-NMR focus on the NMR signals of the ligand and utilize the magnetization transfer by the Nuclear Overhauser Effect (NOE) between protein and ligand. STD-NMR experiments are carried out by subtraction of a 1D ^1H spectrum where the protein protons are selectively irradiated (on-resonance spectrum) from a spectrum in which the protein is not saturated (off-resonance spectrum).
# WL-NMR entails magnetization transfer to the ligand from either bulk water via a macromolecule, and/or the exchangeable protons and the water molecules present in the binding site. Positive peaks for proton resonances of the ligand in the WL-NMR spectrum are observed for binders in presence of the protein. […] As negative control, STD-NMR and WL-NMR experiments were performed for compound 2a in absence of the heterodimer. The absence of proton signals in the aromatic zone and the presence of negative signals in STD-NMR (Fig. 2k) and WL-NMR (Fig. 2l) spectra, respectively, confirms the binding between compound 2a and the VPS29-VPS35 heterodimer. Unfortunately, STD- and WL-NMR competition experiments between 2a and R55/1 could not be performed since the latter compound was not stable in our experimental conditions.
# NMR spectra were acquired at 298K on a Bruker Avance NEO 700 MHz spectrometer equipped with a Z-gradient cryoprobe. The spectra were processed with the Bruker TOPSPIN 4.0.5 software packages. […] 1D ^1H spectra were recorded using a 1 s presaturation pulse with a B1 power of 200 Hz. […]
# VPS35 = VPS35 (Mus musculus, UniProt Q9EQH3+Q9QZ88); conditions: Neuro2a cells, 10 µM, 48 h, WB
# Procedure: Protein extracts were collected, separated by SDS-PAGE and immunoblotted for VPS35 and the housekeeping gene β-Actin.
# Neuro2a cells (ATCC® CCL-131™) were seeded in Dulbecco’s modified Eagle’s media (DMEM, Gibco) supplemented with FBS 10% (Gibco), L-glutamine (Gibco) 2 mM and penicillin/streptomycin 1% (Gibco). Depending on the experimental setting, we used 6-well, 12-well or 96-well dishes. Neuro2a were grow at 37 °C in a humidified 5% CO2 atmosphere. All experiments were carried out at least in triplicate. Compounds and transfections were done on cells showing 60–70% of confluence. Compounds were usually kept on cells for 48 h; Bortezomib (BTZ) was used at 10 nM for 6 h to inhibit proteasome.
# Protein lysates from cells cultures were collected from plates receiving PBS 1× washing and subsequently the lysis buffer followed by sonication. Protein concentrations were measured by BCA protein assay kit (Thermofisher) according to the manufacturer’s recommendations. Ten µg of protein extract was loaded on 10% Mini-PROTEAN TGX Stain-Free precast gels for PAGE (Bio-Rad). Gel electrophoresis was performed at 100 V for 2 h. Gels were transferred on Immobilon®-P PVDF membrane according to the manufacturer’s instructions (Millipore). Blots were blocked in 5% BSA in Tris buffered saline plus 0.1% Tween-20 (TBS-T) for 1 h before receiving primary antibodies: goat α-VPS35 1:800 (ab10099, Abcam); rabbit α-VPS26 1:1000 (ab23892 Abcam), rabbit α-VPS26b 1:1000 (15915-1-AP, ProteinTech); rabbit α-VPS29 1:1000 (ab236796 Abcam); mouse α-βActin 1:25000 (Sigma–Aldrich); mouse α-Golgin97 1:1000 (Invitrogen); mouse α-Ubiquitin 1:500 (Merk); rabbit α-CD14 1:1000 (Bioss Inc); mouse α-Tubulin 1:5000 (Immunological Sciences MAB-80143) overnight at 4 °C on shaker. Following several washes with TBS-T, blots were incubated in appropriate HRP-labeled secondary antibodies (Bio-Rad) for 1 h at room temperature. Visualization of protein bands was obtained using ClarityMax-ECL (Bio-Rad) according to the manufacturer’s instructions and images were acquired on ChemiDoc (Bio-Rad). Quantifications were done using the Image Lab 6.0.1 software (Bio-Rad).
smiles,measurement,setting,value
"NC(N)=N/N=C/c1cccc(/C=N/N=C(N)N)c1 [compound 2a, phenyl-1,3-bis-guanylhydrazone]",CTSD levels and CTSD+ puncta in MNs (confocal),Cathepsin D (CTSD),restored
same,"levels of mature CTSD (WB, lumbar SC extracts)",Cathepsin D (CTSD),significantly increased
same,STD-NMR binding,VPS29-VPS35 heterodimer,interaction between the ligand and the protein complex
same,WL-NMR binding,VPS29-VPS35 heterodimer,binds to the protein complex
same,VPS35 levels,VPS35,increased VPS35 levels
